For orientation: Ki means the equilibrium dissociation constant of an inhibitor or competing ligand from its target. As usually defined, the Kd is the constant that tells how readily two partners part at equilibrium. By IC50 is commonly meant the concentration needed to halve the response being measured. In general, CC50 refers to the concentration giving 50% cytotoxicity. What is called inhibition is the percentage by which the read-out fell short of the control.

The nature of series [1]: Inhibition of CDK6/cyclin D (unknown origin). On the set-up: species or system Homo sapiens.
Series [2] deals with Cyclin-dependent kinase 2 (Homo sapiens, UniProt P24941). The experiment in a line: Binding affinity to full length human CDK2 (1 to 298 residues) expressed in bacterial expression system by KINOMEscan competition assay.
Series [3] has as its target Cyclin-dependent kinase 7 (Homo sapiens, UniProt P50613). The experiment in a line: Binding affinity to full length human CDK7 (1 to 344 residues) expressed in mammalian expression system by KINOMEscan competition assay.
Series [4] has as its target T1, Cyclin-dependent kinase 9 (Homo sapiens, UniProt P50750). The experiment in a line: Binding affinity to full length human CDK9 (1 to 372 residues) expressed in bacterial expression system by KINOMEscan competition assay.
Series [5] concerns the target T1, Cyclin-dependent kinase 9.
Description: Inhibition of CDK9 (unknown origin)
In series [6] the target is Cyclin-dependent kinase 1 (Homo sapiens, UniProt P06493). The experiment in a line: Inhibition of CDK1 (unknown origin).
The target in series [7] is Receptor-type tyrosine-protein kinase FLT3 (Homo sapiens, UniProt P36888, D835Y). The experiment in a line: Inhibition of human recombinant N-terminal GST-tagged FLT3 D835Y mutant expressed in baculovirus infected Sf21 insect cells using abltide as substrate.
For series [8], the target named is T2, CDK3/Cyclin E (Homo sapiens, UniProt Q00526). In words: Inhibition of recombinant human full length C-terminal His6-tagged CDK3/N-terminal GST-tagged cyclin E expressed in baculovirus infected Sf21 insect cells using Histone H1 as substrate.
For series [9], the target named is CDK7/Cyclin H/MNAT1 (Homo sapiens, UniProt P50613). The experiment in a line: Inhibition of recombinant human full length C-terminal His6-tagged CDK7/cyclin H/N-terminal GST-tagged MAT1 expressed in baculovirus infected Sf21 insect cells using cdk7 substrate peptide.
The target in series [10] is Cyclin-dependent kinase 5 (Homo sapiens, UniProt Q00535). The experiment in a line: Inhibition of human GST-tagged CDK5.
Series [11] can be described thus: Cytotoxicity against human HeLa cells assessed as decrease in cell viability after 72 hrs by MTT assay. It is filed as toxicity, cell-based.
Series [12] addresses T3, CDK9/cyclin T1 (Homo sapiens, UniProt P50750). The experiment in a line: Inhibition of human His6-tagged CDK9/cyclin T1 expressed in baculovirus infected sf9 cells using GST-CTD as substrate after 10 mins in presence of [gamma-32P]ATP by SDS-PAGE analysis.
For series [13], the target named is CDK2/Cyclin A2 (Homo sapiens, UniProt P24941). In words: Inhibition of human full length C-terminal His6-tagged CDK2/N-terminal GST-tagged cyclin A using histone H1 as substrate after 10 mins by [gamma-32P]ATP based binding assay. The series is classed as protein-complex assay.
Series [14] deals with T3, CDK9/cyclin T1. In words: Inhibition of recombinant human full length C-terminal His6-tagged CDK9/cyclin T1 expressed in baculovirus infected Sf21 insect cells using 5TAMRA-cdk7tide as substrate after 4.5 hrs by IMAP assay.
A short description of series [15]: Inhibition of M-phase starfish oocytes CDK1/cyclin B after 30 mins by [gamma-33P]ATP based scintillation counting analysis. Details: species or system Asteroidea.
In series [16] the target is T4, Cyclin-dependent kinase 5/CDK5 activator 1 (Homo sapiens, UniProt Q00535). The experiment in a line: Inhibition of human recombinant CDK5/p25 expressed in baculovirus infected Sf9 insect cells after 30 mins by [gamma-33P]ATP based scintillation counting analysis.
The target of series [17] is CDK9/cyclin T1 (Homo sapiens) (UniProt O60563+P50750). The experiment in a line: Inhibition of human CDK9/cyclin T1 by radiometric assay relative to control. It is filed as protein-complex assay. Details: concentration or dose not given beside the values. As to conditions: concentration not given here.
Series [18] concerns the target CDK9/Cyclin K (Homo sapiens) (UniProt P50750+O75909). The experiment in a line: Inhibition of human CDK9/cyclin K by radiometric assay relative to control. It is filed as protein-complex assay. On the set-up: concentration or dose not given beside the values. Conditions: concentration not given here.
The target in series [19] is CDK2/Cyclin A1 (Homo sapiens, UniProt P24941). The experiment in a line: Inhibition of recombinant human His/GST-tagged CDK2/Cyclin A expressed in baculovirus infected Sf9 cells using Histone H1 as substrate after 80 mins in presence of [33P]ATP by microbeta scintillation counting analysis.
Series [20] has as its target T5, Cyclin-dependent kinase 1/cyclin B1 (Homo sapiens, UniProt P06493). In words: Inhibition of recombinant human CDK1/cyclin B expressed in baculovirus infected Sf9 insect cells after 80 mins in presence of [33P]ATP by microbeta scintillation counting analysis.
Series [21] deals with T2, CDK3/Cyclin E. The experiment in a line: Inhibition of recombinant human CDK3/cyclin E expressed in baculovirus infected Sf9 insect cells after 80 mins in presence of [33P]ATP by microbeta scintillation counting analysis.
The target in series [22] is T4, Cyclin-dependent kinase 5/CDK5 activator 1. The experiment in a line: Inhibition of recombinant human His/GST-tagged CDK5/p35 expressed in baculovirus infected Sf9 insect cells using Rb-CTF as substrate after 80 mins in presence of [33P]ATP by microbeta scintillation counting analysis.
Series [23] deals with T5, Cyclin-dependent kinase 1/cyclin B1. It is filed as protein-complex assay.
Description: Inhibition of CDK1/cyclin B (unknown origin)
The target of series [24] is Cyclin-dependent kinase 4/cyclin D1 (Homo sapiens, UniProt P11802). The experiment in a line: Inhibition of recombinant CDK4/cyclin D1 (unknown origin). It is filed as protein-complex assay.
Chain of Cyclin-dependent kinase 4/cyclin D1 (P11802 whole entry): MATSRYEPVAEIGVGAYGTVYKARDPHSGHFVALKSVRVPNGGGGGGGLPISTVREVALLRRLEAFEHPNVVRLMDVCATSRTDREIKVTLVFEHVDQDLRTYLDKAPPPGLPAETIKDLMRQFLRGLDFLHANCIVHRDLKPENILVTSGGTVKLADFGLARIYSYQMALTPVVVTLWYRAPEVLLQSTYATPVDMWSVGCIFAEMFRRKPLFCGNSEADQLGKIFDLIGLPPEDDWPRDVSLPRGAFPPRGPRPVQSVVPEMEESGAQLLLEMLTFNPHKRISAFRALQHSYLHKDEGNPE
Chain of Cyclin-dependent kinase 4/cyclin D1 (P24385 whole entry, further chain): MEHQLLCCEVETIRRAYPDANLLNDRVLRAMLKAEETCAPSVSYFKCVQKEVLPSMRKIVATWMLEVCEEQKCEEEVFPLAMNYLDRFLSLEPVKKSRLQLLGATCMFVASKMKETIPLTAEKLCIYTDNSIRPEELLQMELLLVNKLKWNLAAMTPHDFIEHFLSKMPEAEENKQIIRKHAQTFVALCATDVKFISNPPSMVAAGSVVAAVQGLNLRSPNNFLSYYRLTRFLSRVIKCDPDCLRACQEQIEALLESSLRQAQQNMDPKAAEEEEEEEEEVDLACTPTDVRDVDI

T3 sequence (O60563 whole entry): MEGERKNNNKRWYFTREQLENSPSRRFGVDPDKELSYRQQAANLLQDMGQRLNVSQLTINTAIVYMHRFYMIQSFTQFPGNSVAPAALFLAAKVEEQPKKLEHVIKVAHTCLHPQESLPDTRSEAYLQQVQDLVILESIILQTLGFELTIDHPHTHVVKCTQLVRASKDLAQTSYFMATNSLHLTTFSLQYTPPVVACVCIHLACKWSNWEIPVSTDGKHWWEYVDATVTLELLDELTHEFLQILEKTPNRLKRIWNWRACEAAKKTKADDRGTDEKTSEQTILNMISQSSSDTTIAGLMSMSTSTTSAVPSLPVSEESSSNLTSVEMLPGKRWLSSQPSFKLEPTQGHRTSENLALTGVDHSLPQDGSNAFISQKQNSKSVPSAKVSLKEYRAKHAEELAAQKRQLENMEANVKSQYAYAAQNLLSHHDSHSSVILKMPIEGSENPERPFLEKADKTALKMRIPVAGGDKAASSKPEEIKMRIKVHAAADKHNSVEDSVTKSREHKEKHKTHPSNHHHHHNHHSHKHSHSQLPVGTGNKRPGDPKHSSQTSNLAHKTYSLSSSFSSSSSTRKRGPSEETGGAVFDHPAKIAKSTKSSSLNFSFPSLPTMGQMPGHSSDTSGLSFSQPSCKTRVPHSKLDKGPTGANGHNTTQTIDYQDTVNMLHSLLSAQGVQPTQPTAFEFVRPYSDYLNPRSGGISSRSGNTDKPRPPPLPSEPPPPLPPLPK
T3 sequence (P50750 whole entry): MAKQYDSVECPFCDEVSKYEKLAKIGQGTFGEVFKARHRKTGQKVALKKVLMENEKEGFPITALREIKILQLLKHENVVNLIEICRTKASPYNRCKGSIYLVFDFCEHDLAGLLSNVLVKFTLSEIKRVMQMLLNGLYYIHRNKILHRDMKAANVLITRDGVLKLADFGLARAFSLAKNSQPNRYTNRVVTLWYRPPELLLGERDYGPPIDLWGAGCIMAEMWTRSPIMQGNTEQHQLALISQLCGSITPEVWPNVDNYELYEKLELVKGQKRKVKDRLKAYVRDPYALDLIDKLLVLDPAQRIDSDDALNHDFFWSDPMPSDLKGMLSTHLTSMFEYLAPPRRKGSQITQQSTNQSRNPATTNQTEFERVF
T1 sequence (P50750 whole entry, the tested form may be a part): as the sequence (P50750 whole entry) above
T4 sequence (Q00535 whole entry): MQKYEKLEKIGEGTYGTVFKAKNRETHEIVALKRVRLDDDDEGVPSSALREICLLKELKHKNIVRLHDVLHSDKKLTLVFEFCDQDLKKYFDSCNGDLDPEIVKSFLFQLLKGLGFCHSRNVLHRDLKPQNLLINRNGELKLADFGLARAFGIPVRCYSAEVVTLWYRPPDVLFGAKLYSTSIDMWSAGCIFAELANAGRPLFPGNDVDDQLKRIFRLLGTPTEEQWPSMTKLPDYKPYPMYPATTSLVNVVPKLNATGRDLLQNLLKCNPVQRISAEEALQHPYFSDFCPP
T4 sequence (Q15078 whole entry, further chain): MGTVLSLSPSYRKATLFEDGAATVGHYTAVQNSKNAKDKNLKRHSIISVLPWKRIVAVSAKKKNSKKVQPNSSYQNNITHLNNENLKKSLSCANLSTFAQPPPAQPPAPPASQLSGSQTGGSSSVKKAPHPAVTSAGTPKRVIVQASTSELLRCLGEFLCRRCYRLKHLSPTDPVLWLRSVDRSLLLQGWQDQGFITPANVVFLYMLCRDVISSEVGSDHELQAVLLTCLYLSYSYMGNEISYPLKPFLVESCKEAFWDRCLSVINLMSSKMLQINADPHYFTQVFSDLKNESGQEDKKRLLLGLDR
T2 sequence (P24864 whole entry): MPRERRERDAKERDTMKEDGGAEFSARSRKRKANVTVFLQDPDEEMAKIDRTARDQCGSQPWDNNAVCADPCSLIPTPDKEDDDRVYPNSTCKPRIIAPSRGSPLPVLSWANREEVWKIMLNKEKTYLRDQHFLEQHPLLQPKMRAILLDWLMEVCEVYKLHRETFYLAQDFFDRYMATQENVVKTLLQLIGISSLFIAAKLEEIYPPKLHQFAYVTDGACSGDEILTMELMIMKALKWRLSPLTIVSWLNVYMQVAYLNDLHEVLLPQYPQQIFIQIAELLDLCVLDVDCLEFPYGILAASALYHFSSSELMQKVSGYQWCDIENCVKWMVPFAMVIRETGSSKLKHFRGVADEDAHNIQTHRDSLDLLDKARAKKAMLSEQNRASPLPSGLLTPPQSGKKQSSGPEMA
T2 sequence (Q00526 whole entry): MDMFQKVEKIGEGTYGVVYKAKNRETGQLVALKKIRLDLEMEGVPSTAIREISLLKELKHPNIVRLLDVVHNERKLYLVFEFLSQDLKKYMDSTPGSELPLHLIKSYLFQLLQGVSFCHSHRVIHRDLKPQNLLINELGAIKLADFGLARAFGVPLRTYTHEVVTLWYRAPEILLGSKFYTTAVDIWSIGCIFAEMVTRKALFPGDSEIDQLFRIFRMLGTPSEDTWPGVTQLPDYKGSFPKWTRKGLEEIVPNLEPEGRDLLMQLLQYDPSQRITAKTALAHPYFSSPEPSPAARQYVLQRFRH
T5 sequence (P06493 whole entry): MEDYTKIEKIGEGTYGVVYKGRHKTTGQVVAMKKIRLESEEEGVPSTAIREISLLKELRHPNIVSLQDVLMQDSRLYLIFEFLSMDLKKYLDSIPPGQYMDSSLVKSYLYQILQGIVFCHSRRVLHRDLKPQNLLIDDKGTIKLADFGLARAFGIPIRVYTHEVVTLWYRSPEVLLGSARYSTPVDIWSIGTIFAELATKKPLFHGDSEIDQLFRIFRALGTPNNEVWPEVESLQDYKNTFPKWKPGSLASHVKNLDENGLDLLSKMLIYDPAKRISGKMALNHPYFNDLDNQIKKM
T5 sequence (P14635 whole entry, further chain): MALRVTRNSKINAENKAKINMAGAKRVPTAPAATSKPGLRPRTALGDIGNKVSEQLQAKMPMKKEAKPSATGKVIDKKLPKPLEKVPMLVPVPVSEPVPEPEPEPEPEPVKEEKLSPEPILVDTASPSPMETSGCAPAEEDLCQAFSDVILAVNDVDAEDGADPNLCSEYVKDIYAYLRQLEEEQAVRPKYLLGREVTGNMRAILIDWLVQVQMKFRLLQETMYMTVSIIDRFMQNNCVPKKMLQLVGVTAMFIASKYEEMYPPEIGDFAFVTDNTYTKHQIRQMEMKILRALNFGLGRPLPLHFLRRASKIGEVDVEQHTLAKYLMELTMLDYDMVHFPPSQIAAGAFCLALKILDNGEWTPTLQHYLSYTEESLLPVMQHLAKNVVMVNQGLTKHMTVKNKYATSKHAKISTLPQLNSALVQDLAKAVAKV
Chain of CDK7/Cyclin H/MNAT1 (P51946 whole entry): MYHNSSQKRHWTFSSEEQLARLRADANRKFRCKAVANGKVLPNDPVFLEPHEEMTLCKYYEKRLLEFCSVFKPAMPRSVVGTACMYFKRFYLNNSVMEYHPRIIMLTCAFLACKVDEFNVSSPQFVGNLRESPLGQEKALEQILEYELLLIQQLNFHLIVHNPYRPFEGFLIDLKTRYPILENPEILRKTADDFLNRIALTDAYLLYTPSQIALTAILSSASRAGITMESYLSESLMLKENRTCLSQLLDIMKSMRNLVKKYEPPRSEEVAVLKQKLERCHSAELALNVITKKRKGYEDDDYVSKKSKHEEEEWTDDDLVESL
Chain of CDK7/Cyclin H/MNAT1 (P50613 whole entry): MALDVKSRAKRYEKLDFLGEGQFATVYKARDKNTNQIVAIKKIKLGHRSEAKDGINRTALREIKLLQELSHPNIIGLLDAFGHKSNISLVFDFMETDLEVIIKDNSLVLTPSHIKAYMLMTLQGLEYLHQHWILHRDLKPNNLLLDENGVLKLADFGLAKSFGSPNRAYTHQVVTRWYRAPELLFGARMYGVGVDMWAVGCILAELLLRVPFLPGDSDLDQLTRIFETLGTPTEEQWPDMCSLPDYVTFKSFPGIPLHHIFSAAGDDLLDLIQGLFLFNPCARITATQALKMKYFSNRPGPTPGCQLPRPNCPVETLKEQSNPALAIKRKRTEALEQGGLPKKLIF
Chain of CDK7/Cyclin H/MNAT1 (P51948 whole entry, further chain): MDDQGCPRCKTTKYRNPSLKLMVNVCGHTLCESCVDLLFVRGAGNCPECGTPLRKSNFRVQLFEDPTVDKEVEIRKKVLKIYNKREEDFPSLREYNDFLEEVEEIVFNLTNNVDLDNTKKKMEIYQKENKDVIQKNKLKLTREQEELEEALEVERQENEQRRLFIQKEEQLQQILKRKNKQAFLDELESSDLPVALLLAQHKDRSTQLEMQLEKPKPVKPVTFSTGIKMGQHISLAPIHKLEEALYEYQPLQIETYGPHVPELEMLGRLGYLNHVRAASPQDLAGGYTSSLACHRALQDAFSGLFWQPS
Chain of Cyclin-dependent kinase 7 (P50613 whole entry, the tested form may be a part): as the sequence (P50613 whole entry) above

Compound `O=C(NC1CCNCC1)c1n[nH]cc1NC(=O)c1c(Cl)cccc1Cl` [AT-7519] gave a Ki in [1] of 660 nM.
On to `Cc1ccc([N+](=O)[O-])cc1S(=O)(=O)N(C)/N=C/c1cnc2ccc(Br)cn12`, for which the Kd came out at 540 nM in series [2], 2.5 nM in series [3] and 4.1 nM in [4]. For the same compound, half-maximal inhibition in series [5] (IC50) was put at 1.4 nM.
Turning to `CN1C/C=C/CCOc2cccc(c2)-c2ccnc(n2)Nc2cccc(c2)C1` [ZOTIRACICLIB], the IC50 in series [6] is 3 to 15 nM; in series [7] it was 21 nM; in series [8], 3 to 15 nM; in series [9], 3 to 15 nM; in series [10], 3 to 15 nM.
For the compound `C=Cc1ccc(-c2cc(=O)c3c(O)cc(O)c([C@H]4CCN(C)C[C@H]4O)c3o2)cc1`, the CC50 at 72 h in [11] was determined as 219 nM. For the same compound, the results for the IC50 in series [12] and in series [13] were 9.5 nM and 206 nM, respectively.
Consider `NCCCNc1cc(-c2cncc(NCC3CCOCC3)c2)c(Cl)cn1`, for which the IC50 in series [14] was 1860 nM.
For the compound `CN1CC[C@H](c2c(O)cc(O)c3c(=O)cc(-c4ccccc4F)oc23)[C@H](O)C1`, the CC50 at 72 h in [11] was found to be 274 nM. In addition, the values for the half-maximal inhibitory concentration (IC50) in [12] and in series [13] were 2.8 nM and 357 nM, respectively.
In the case of `COc1ccnc2c1c(-c1ccnc(N)n1)cn2C` [MERIOLIN 9], the IC50 in series [15] and in series [16] was greater than 10000 nM throughout.
`O=C1Cc2c([nH]c3ccc([N+](=O)[O-])cc23)-c2ccccc2N1`: the inhibition in [17] and in series [18] was greater than 75% each time.
In the case of `Nc1nc(Nc2ccc(S(N)(=O)=O)cc2)nn1C(=S)Nc1c(F)cccc1F`, the inhibition in series [17] and in series [18] was greater than 75% in each case.
Consider `Clc1cnc(NC2CCCC2)cc1-c1cnc(N2CCOCC2)c(NCC2CCOCC2)c1`, for which, in [14], the IC50 was found to be 3440 nM.
Take `COc1cc(F)ccc1-c1ccnc(NC(=O)[C@H]2CCC[C@@H](NC(C)=O)C2)c1`: the IC50 in [19], in series [20], in series [21] and in series [22] was 94 to 1080 nM in each case.
In the case of `CN1CC[C@H](c2c(O)cc(O)c3c(=O)cc(-c4ccc(O)cc4)oc23)[C@H](O)C1`, the CC50 at 72 h in series [11] is 20900 nM. Further, the IC50 in [12] was 9.6 nM; in series [13], 196 nM.
For `Nc1nccc(-c2c[nH]c3nccc(O)c23)n1` [MERIOLIN 2], the half-inhibitory concentration (IC50) in series [15] was 57 nM.
Consider `O=C1Nc2ccc3ncsc3c2/C1=C/c1c[nH]cn1`, for which the inhibition in [17] and in series [18] was greater than 75% each time.
With `CN1CC[C@@H](c2c(O)cc(O)c3c(=O)cc(-c4ccc(C(F)(F)F)cc4Cl)oc23)[C@@H]1CO` [VORUCICLIB], the 50% inhibitory concentration (IC50) amounted to 25 nM in series [23] and 90 nM in series [24].
`CN1CC[C@H](c2c(O)cc(O)c3c(=O)cc(-c4ccc(F)cc4)oc23)[C@H](O)C1`: in series [11], the CC50 at 72 h came out at 200 nM. The IC50 in series [12] came to 2.1 nM; in [13] it was 129 nM.
The like results for `CN1CC[C@H](c2c(O)cc(O)c3c(=O)cc(-c4ccc(Br)cc4)oc23)[C@H](O)C1` were, in that order, 280 nM, 5.5 nM and 224 nM.

The values above are taken from ChEMBL document CHEMBL3856187, “Cyclin Dependent Kinase 9 Inhibitors for Cancer Therapy” (J Med Chem, 2016).
